Assay results taken from patent publication US20240114902A1, “COMPOSITIONS AND METHODS FOR DETERRING OVIPOSITION BY FRUIT FLIES” (The United States of America, as represented by The …, priority 2022, published 2024).

Key:
[1] = tested on: melon fly (Zeugodacus cucurbitae); assay: Additional fatty acids: melon fly two-choice oviposition bioassay on pumpkin juice agar; format: in vivo; details: 20 mg, 24 hours
Procedure: (§1) Oviposition bioassays were conducted using laboratory two-choice cage experiments with pumpkin juice-infused agar (for Melon fly) and guava juice-infused agar (for OFF) as oviposition substrate. The agar plates were prepared by pouring 10 mL of boiled agar mixture [1000 mL distilled water, 500 mL pumpkin or guava juice, 10 g agar, 0.6 g methylparaben, 6.7 mL 95% ethanol, and 3 mL acetic acid] into a small petri dish (60 mm×15 mm). The agar was then covered with a lid to avoid desiccation. The two-choice oviposition bioassay was conducted in screened cages using 20 mated melon fly or OFF females per cage (14-18 day-old; Jang et al.; Supra) over 24 hours. Each cage was provided with a ball of water-saturated cotton and sugar+protein hydrolysate mixture in separate 30 mL deli cups, and two agar plates-one treated with one of the test compounds (C4:0 (Butyric acid), C5:0 (Valeric acid), C6:0 (Caproic acid), C7:0 (Enanthic acid), C9:0 (Pelargonic acid), C11:0 (Undecylic acid), C13:0 (Tridecylic acid), C15:0 (Pentadecylic acid), C17:0 (Margaric acid), or C19:0 (Nonadecylic acid)) diluted in ethanol and the other treated with the ethanol which served as a control. The agar plates were surface-treated either with 200 μL of ethanol (control) or 200 μL of one of tested compounds diluted at 20 mg/200 μL of ethanol, placed into a fume hood for 10 minutes to evaporate solvents prior to be used in bioassays, and positioned upside-down (i.e. treated side down) on the center of the outside top of the screened cage 17 cm apart from each other (i.e. one each of control and treated), allowing female flies to oviposit on pumpkin (for melon fly) or guava juice (for OFF) agar from the bottom through the cage screen. After 24 hours, melon fly and OFF eggs in the agar were gently separated from the agar in water and the number of eggs were individually counted. The experiment was replicated five times per treatment.

oriental fruit fly (OFF) = assay: Additional fatty acids: OFF two-choice oviposition bioassay on guava juice agar, 24 hours; format: in vivo, Bactrocera dorsalis; details: individual compound, 20 mg dose
Procedure: as §1

Zeugodacus cucurbitae = assay: Spatial repellency of fatty acid methyl esters, two-choice traps with pumpkin juice; format: in vivo; details: 100 μL doses
Description: The methods used to test the repellency of fatty acid methyl esters for OFF described above were used in this Example, with minor modifications. The only difference was that pumpkin juice was used as attractant in traps. Melon flies used in this study were from melon fly colony at the U.S Pacific Basin Agricultural Research Center in Hilo, Hawaii, which were maintained on a standard larval diet containing wheat, sugar, and yeast (Tanaka at al., Supra). Chemicals tested were C8:0ME (Methyl octanoate), C10:0ME (Methyl decanoate), C12:0ME (Methyl laurate), C14:0ME (Methyl tetradecanoate), C16:0ME (Methyl palmitate), C18:0ME (Methyl stearate), C18:1ME (Methyl Oleate), and C18:2 (Methyl linoleate).

Bactrocera dorsalis = assay: B. dorsalis spatial deterrence, two-choice traps baited with guava juice; format: in vivo; details: tested individually
Procedure: In addition to CFA, a series of odd-numbered carbon fatty acids (C9:0 to C17:0) and fatty acid methyl esters were evaluated for the spatial deterrence to B. dorsalis that results in oviposition reduction. Table 3 below lists the fatty acid methyl esters tested for spatial repellency for Bactrocera dorsalis. […] FIG. 16A, FIG. 16C, FIG. 16E, FIG. 16G, FIG. 16I, FIG. 16K, FIG. 16M, FIG. 16O, FIG. 16Q, and FIG. 16S show the mean numbers (±SEM) of mated female B. dorsalis flies captured, and FIG. 16B, FIG. 16D, FIG. 16F, FIG. 16H, FIG. 16J, FIG. 16L, FIG. 16N, FIG. 16P, FIG. 16R, and FIG. 16T show the number of B. dorsalis eggs oviposited in traps baited with guava juice (control) and with guava juice plus one of the coconut fatty acid methyl ester compounds in two-choice bioassays. For each test, different letter on the bar indicate a significant difference by Tukey-Kramer tests at P<0.05, n=4.

[2] = tested on: Bactrocera dorsalis (OFF); assay: OFF two-choice cage oviposition bioassay on guava juice-infused agar; format: in vivo; details: individual compound, 20 mg/agar
Procedure: Evaluation of oviposition deterrence of CFA: OFF oviposition bioassays were conducted using laboratory two-choice cage experiments with guava juice-infused agar as an oviposition substrate. The agar plates were prepared by pouring 30 mL of boiled agar mixture [1000 mL distilled water, 500 mL guava juice (Deans Foods, El Paso, Texas, USA), 10 g agar, 0.6 g methylparaben, 6.7 mL 95% ethanol, and 3 mL acetic acid] into a 30 mL deli plastic cup to gel. The agar was then covered with a lid to avoid desiccation. The two-choice oviposition bioassay was conducted in screened cages using 20 mated OFF females per cage (12-18 day-old; Jang E B et al., 1997, “Attraction of female oriental fruit fly, Bactrocera dorsalis, to volatile semiochemicals from leaves and extracts of a non-host plant, Panax (Polyscias guilfoylei) in laboratory and olfactometer assays,” J. Chem. Ecol. 23:1389-1401) over 3 days. Each cage was provided with a ball of water-saturated cotton, sugar, and protein hydrolysate in separate 30 mL deli cups and two guava juice agar plates-one treated with CFA diluted in hexane and the other treated with the hexane control. The agar plates were surface-treated either with 200 μL of hexane or 200 μL of CFA in one of 4 doses tested (20, 2, 0.2, and 0.02 mg/200 μL of hexane), placed into a fume hood for 10 minutes prior to use in bioassays, and positioned upside-down (i.e., treated side down) on the center of the outside top of the screened cage 17 cm apart from each other (i.e., one each of control and CFA treated), allowing female flies to oviposit on guava juice agar from the bottom through the cage screen. After three days, OFF eggs in the guava agar were gently separated from the agar in water and the number of eggs were individually counted (up to 100 eggs) or estimated volumetrically at 1 mL OFF eggs=20,000 eggs (Stephanie Gayle personal communication). The experiment was replicated six times per treatment. Determination of bioactive oviposition deterrent components from CFA: A series of bioassays was conducted to identify key deterrent components of CFA for OFF using the same two-choice bioassay design described above. […] Ethanol was used as control and for preparing dilutions of C16:0 and C18:0. Hexane was used as control and for dilutions of the other six compounds tested. Based on the outcome of these bioassays, the eight free fatty acid components were assigned to “OFF negative” (i.e., oviposition reduced), “OFF neutral” (i.e., no effect on oviposition), and “OFF positive” (i.e., oviposition increased) compound groups. Using these groupings, four different blends were formulated (indicated in Table 1), composed at the equivalent ratios and concentrations of each component found in CFA (Zhu J J et al., 2018, supra), to determine key bioactive CFA components in terms of oviposition deterrence on OFF. The approach involved testing the bioactivity of the OFF negative-component blend (4c blend) for oviposition deterrence at three different doses (2, 0.2, and 0.02 mg CFA equivalent/agar), first comparing with hexane control, then with CFA at respective equivalent doses. As the 4c blend was not as effective as CFA, a “OFF negative+OFF neutral” component blend (6c blend) was then formulated, and its effect compared with CFA at 2 and 0.2 mg CFA equivalent/agar. Two subtraction blends with one of the two OFF neutral components removed from the 6c blend (5c-i and 5c-ii blends) were formulated and compared with the 6c blend at 2 and 0.2 mg CFA equivalent/agar. The experiment was replicated four to six times per treatment.

CCCCC(=O)O [C5:0, Valeric acid]
fewer melon fly eggs on treated pumpkin juice agar vs control agar [1]: 72.5% | effect on OFF oviposition (oriental fruit fly (OFF)): did not affect OFF oviposition

CCCCCCCCCCCC(=O)OC [C12:0 ME, Methyl laurate]
fewer Z. cucurbitae captured in traps baited with FAME vs control (Zeugodacus cucurbitae): 55.5% | effect on female B. dorsalis attraction and oviposition to host fruit odors (Bactrocera dorsalis): significantly reduced

CCCCCC(=O)O [C6:0, Caproic acid]
effect on melon fly oviposition vs control [1]: increased melon fly oviposition | effect on OFF oviposition (oriental fruit fly (OFF)): did not affect OFF oviposition

CCCCCCC(=O)O [C7:0, Enanthic acid]
effect on female B. dorsalis attraction and oviposition to host fruit odors (Bactrocera dorsalis): significantly reduced | effect on melon fly oviposition vs control [1]: increased melon fly oviposition | effect on OFF oviposition (oriental fruit fly (OFF)): did not affect OFF oviposition

CCCCCCCCCCCCCCC(=O)O [C15:0, Pentadecylic acid]
effect on melon fly oviposition vs control [1]: increased melon fly oviposition

CCCCCCCCCCCCCCCCC(=O)O [C17:0, Margaric acid]
effect on melon fly oviposition vs control [1]: increased melon fly oviposition

CCCCC/C=C\C/C=C\CCCCCCCC(=O)OC [C18:2ME, Methyl linoleate]
effect on melon fly behavior (Zeugodacus cucurbitae): did not affect melon fly behavior

CCCCCCCCC(=O)O [C9:0, Pelargonic acid]
effect on female B. dorsalis attraction and oviposition to host fruit odors (Bactrocera dorsalis): significantly reduced | effect on OFF oviposition vs control agar [2]: significantly reduced | effect on melon fly oviposition vs control [1]: did not affect melon fly oviposition

CCCC(=O)O [C4:0, Butyric acid]
effect on melon fly oviposition vs control [1]: did not affect melon fly oviposition | effect on OFF oviposition (oriental fruit fly (OFF)): did not affect OFF oviposition

CCCCCCCC/C=C\CCCCCCCC(=O)OC [C18:1ME, Methyl Oleate]
fewer Z. cucurbitae captured in traps baited with FAME vs control (Zeugodacus cucurbitae): 91.8%

CCCCCCCCCCCCCCCCCCC(=O)O [C19:0, Nonadecylic acid]
effect on melon fly oviposition vs control [1]: did not affect melon fly oviposition

CCCCCCCCCCCCCC(=O)OC [C14:0 ME, Methyl myristate]
effect on melon fly behavior (Zeugodacus cucurbitae): did not affect melon fly behavior

CCCCCCCC(=O)OC [C8:0 ME, Methyl caprylate]
fewer Z. cucurbitae captured in traps baited with FAME vs control (Zeugodacus cucurbitae): 97.1% | effect on female B. dorsalis attraction and oviposition to host fruit odors (Bactrocera dorsalis): significantly reduced

CCCCCCCCCC(=O)OC [C10:0 ME, Methyl caprate]
fewer Z. cucurbitae captured in traps baited with FAME vs control (Zeugodacus cucurbitae): 76.0% | effect on female B. dorsalis attraction and oviposition to host fruit odors (Bactrocera dorsalis): significantly reduced

CCCCCCCCCCCCC(=O)O [C13:0, Tridecylic acid]
effect on OFF oviposition vs control agar [2]: significantly reduced | fewer melon fly eggs on treated pumpkin juice agar vs control agar [1]: 75.7%

CCCCCCCCCCCCCCCCCC(=O)OC [C18:0ME, Methyl stearate]
effect on melon fly behavior (Zeugodacus cucurbitae): did not affect melon fly behavior

CCCCCCCCCCCCCCCC(=O)OC [C16:0 ME, Methyl palmitate]
effect on melon fly behavior (Zeugodacus cucurbitae): did not affect melon fly behavior
